From US6992079B2, “Substituted 11-phenyl-dibenzazepine compounds useful for the treatment or prevention of diseases characterized by abnormal cell proliferation” (President Fellows of Harvard College, priority 1997, dated 2006)
Like-named read-outs stand apart in the source and are kept apart here.

Experiments:
[1] = system: A549; test: SRB antiproliferative assay; type: cell-based; details: Homo sapiens
Excerpt: (§1) The cells were passaged using Trypsin (Gibco).

[2] = system: HEPG2; test: SRB antiproliferative assay; type: cell-based; details: Homo sapiens
Excerpt: as §1

[3] = system: HT29; test: SRB antiproliferative assay; type: cell-based; details: Homo sapiens
Excerpt: as §1

[4] = system: HeLa; test: SRB antiproliferative assay; type: cell-based; details: Homo sapiens, HeLa (Cervical), 5% FCS/5 day incubation
Excerpt: as §1

[5] = system: MCF7; test: SRB antiproliferative assay; type: cell-based; details: Homo sapiens
Excerpt: as §1

[6] = system: U118MG; test: SRB antiproliferative assay; type: cell-based; details: Homo sapiens, U-118-MG
Excerpt: as §1

[7] = system: human melanoma MM-RU cells; test: Lung metastases in MM-RU tumor-bearing mice; type: in vivo, nude mice
[8] = system: cyclin D1 and E expression; test: Cyclin expression and cell cycle in vitro; type: cell-based
[9] = system: K-562; test: In-Vitro Testing SRB panel: Leukemia; type: cell-based
[10] = system: ROP-92; type: cell-based; details: 48 h
[11] = system: NCI-H226; type: cell-based; details: NCI-H226, 48 h
[12] = system: COLO 205; test: In-Vitro Testing SRB panel: Colon Cancer; type: cell-based; details: COLO 205, 48 h
[13] = system: HT29; test: In-Vitro Testing SRB panel: Colon Cancer; type: cell-based
[14] = system: SW-620; test: In-Vitro Testing SRB panel: Colon Cancer; type: cell-based; details: SW-620, 48 h
[15] = system: SF-539; test: In-Vitro Testing SRB panel: CNS Cancer; type: cell-based; details: SF-539, 48 h
[16] = system: SNB-19; test: In-Vitro Testing SRB panel: CNS Cancer; type: cell-based; details: SNB-19, 48 h
[17] = system: U251; test: In-Vitro Testing SRB panel: CNS Cancer; type: cell-based
[18] = system: SN12C; test: In-Vitro Testing SRB panel: Renal Cancer; type: cell-based; details: 48 h
[19] = system: NCI/ADR-RES; test: In-Vitro Testing SRB panel: Breast Cancer; type: cell-based; details: 48 h
[20] = system: MDA-N; test: In-Vitro Testing SRB panel: Breast Cancer; type: cell-based; details: 48 h
[21] = system: OVCAR-3; test: In-Vitro Testing SRB panel: Ovarian Cancer
[22] = MM-RU tumor-bearing mice, 80 mg/kg/d × 5/w × 3 s.c.
[23] = MM-RU tumor-bearing mice, 100 mg/kg/d × 28, p.o.
[24] = Homo sapiens, read-out: LC50 (the source's name)

SMILES: O=C(c1ccc([N+](=O)[O-])cc1)N1Cc2ccccc2C(c2ccccc2Cl)c2ccccc21 (stereo not shown) [Compound 28, N-(4′-Nitrobenzoyl)-11-(2′-chlorophenyl)-5,6-dihydro-11H-dibenz[b,e]azepine]
- IC50 ([1]; A549, A549 (Lung), 5% FCS/5 day incubation): 800 nM
- IC50 ([1]; A549, A549, 5% FCS/3 days): 1800 nM
- IC50 ([2]; HepG2, HEPG2 (Hepatocel), 5% FCS/5 day incubation): 300 nM
- IC50 ([2]; HepG2, HEPG2, 5% FCS/3 days): < 1250 nM
- IC50 ([3]; HT-29, HT29 (Colon), 5% FCS/5 day incubation): 300 nM
- IC50 ([3]; HT-29, HT29, 5% FCS/3 days): < 1250 nM
- IC50 [4]: 300 nM
- IC50 ([5]; MCF7, MCF7 (Breast), 5% FCS/5 day incubation): 600 nM
- IC50 ([5]; MCF7, MCF7, 5% FCS/3 days): 2100 nM
- IC50 ([6]; U118MG (CNS), 5% FCS/5 day incubation): 500 nM
- IC50 ([6]; U118MG, 5% FCS/3 days): 1300 nM
- Body Wt. Change [7, 22]: 107%
- Liver Wt. [7, 22]: 0.97 ± 0.12 gram
- Lung Metastases [7, 22]: 46 ± 12
- Body Wt. Change [7, 23]: 105%
- Liver Wt. [7, 23]: 1.00 ± 0.09 gram
- Lung Metastases [7, 23]: 45 ± 10
- Lung Metastases ([7]; nude mice, MM-RU cells, oral administration or subcutaneous injection): lung metastases were significantly reduced
- cell cycle arrest [8]: induction of G0-G1 cell cycle arrest
- cyclin D1 and E expression [8]: inhibit cyclin D1 and E expression
- GI50 ([9]; Homo sapiens, K562, 48 h): 394 nM
- CC50 ([9]; Homo sapiens, K562, K-562, 48 h, read-out: LC50 (the source's name)): > 100000 nM
- TGI ([9]; K-562, 48 h): >1.00E−04 Molar
- Percent Growth ([9]; K-562, log10 conc −4.0 Molar, 48 h): 26%
- Percent Growth ([9]; K-562, log10 conc −5.0 Molar, 48 h): 25%
- Percent Growth ([9]; K-562, log10 conc −6.0 Molar, 48 h): 38%
- Percent Growth ([9]; K-562, log10 conc −7.0 Molar, 48 h): 68%
- Percent Growth ([9]; K-562, log10 conc −8.0 Molar, 48 h): 82%
- GI50 ([10]; Homo sapiens): 7510 nM
- CC50 ([10]; Homo sapiens, ROP-92, read-out: LC50 (the source's name)): > 100000 nM
- TGI ([10]; ROP-92): >1.00E−04 Molar
- Percent Growth ([10]; ROP-92, log10 conc −4.0 Molar): 19%
- Percent Growth ([10]; ROP-92, log10 conc −5.0 Molar): 46%
- Percent Growth ([10]; ROP-92, log10 conc −6.0 Molar): 79%
- Percent Growth ([10]; ROP-92, log10 conc −7.0 Molar): 104%
- Percent Growth ([10]; ROP-92, log10 conc −8.0 Molar): 100%
- GI50 ([11]; Homo sapiens): 7960 nM
- CC50 [11, 24]: > 100000 nM
- TGI [11]: >1.00E−04 Molar
- Percent Growth ([11]; log10 conc −4.0 Molar): 33%
- Percent Growth ([11]; log10 conc −5.0 Molar): 48%
- Percent Growth ([11]; log10 conc −6.0 Molar): 66%
- Percent Growth ([11]; log10 conc −7.0 Molar): 83%
- Percent Growth ([11]; log10 conc −8.0 Molar): 90%
- TGI [12]: 1.41E−05 Molar
- Percent Growth ([12]; log10 conc −4.0 Molar): −60%
- Percent Growth ([12]; log10 conc −5.0 Molar): 10%
- Percent Growth ([12]; log10 conc −6.0 Molar): 40%
- Percent Growth ([12]; log10 conc −7.0 Molar): 77%
- Percent Growth ([12]; log10 conc −8.0 Molar): 79%
- GI50 ([12]; Homo sapiens): 845 nM
- CC50 [12, 24]: > 72500 nM
- TGI ([13]; HT29, 48 h): >1.00E−04 Molar
- Percent Growth ([13]; HT29, log10 conc −4.0 Molar, 48 h): 27%
- Percent Growth ([13]; HT29, log10 conc −5.0 Molar, 48 h): 27%
- Percent Growth ([13]; HT29, log10 conc −6.0 Molar, 48 h): 38%
- Percent Growth ([13]; HT29, log10 conc −7.0 Molar, 48 h): 78%
- Percent Growth ([13]; HT29, log10 conc −8.0 Molar, 48 h): 86%
- GI50 ([13]; Homo sapiens, HT-29, 48 h): 505 nM
- CC50 ([13]; Homo sapiens, HT-29, HT29, 48 h, read-out: LC50 (the source's name)): > 100000 nM
- GI50 ([14]; Homo sapiens): 7130 nM
- CC50 [14, 24]: > 100000 nM
- TGI [14]: >1.00E−04 Molar
- Percent Growth ([14]; log10 conc −4.0 Molar): 42%
- Percent Growth ([14]; log10 conc −5.0 Molar): 47%
- Percent Growth ([14]; log10 conc −6.0 Molar): 65%
- Percent Growth ([14]; log10 conc −7.0 Molar): 94%
- Percent Growth ([14]; log10 conc −8.0 Molar): 112%
- GI50 ([15]; Homo sapiens): 25600 nM
- CC50 [15, 24]: > 100000 nM
- TGI [15]: >1.00E−04 Molar
- Percent Growth ([15]; log10 conc −4.0 Molar): 35%
- Percent Growth ([15]; log10 conc −5.0 Molar): 61%
- Percent Growth ([15]; log10 conc −6.0 Molar): 86%
- Percent Growth ([15]; log10 conc −7.0 Molar): 107%
- Percent Growth ([15]; log10 conc −8.0 Molar): 82%
- GI50 ([16]; Homo sapiens): 3270 nM
- CC50 [16, 24]: > 100000 nM
- TGI [16]: >1.00E−04 Molar
- Percent Growth ([16]; log10 conc −4.0 Molar): 32%
- Percent Growth ([16]; log10 conc −5.0 Molar): 44%
- Percent Growth ([16]; log10 conc −6.0 Molar): 56%
- Percent Growth ([16]; log10 conc −7.0 Molar): 95%
- Percent Growth ([16]; log10 conc −8.0 Molar): 99%
- GI50 ([17]; Homo sapiens, U-251, 48 h): 476 nM
- CC50 ([17]; Homo sapiens, U-251, U251, 48 h, read-out: LC50 (the source's name)): > 100000 nM
- TGI ([17]; U251, 48 h): >1.00E−04 Molar
- Percent Growth ([17]; U251, log10 conc −4.0 Molar, 48 h): 8%
- Percent Growth ([17]; U251, log10 conc −5.0 Molar, 48 h): 9%
- Percent Growth ([17]; U251, log10 conc −6.0 Molar, 48 h): 28%
- Percent Growth ([17]; U251, log10 conc −7.0 Molar, 48 h): 94%
- Percent Growth ([17]; U251, log10 conc −8.0 Molar, 48 h): 104%
- TGI [18]: >1.00E−04 Molar
- GI50 ([18]; Homo sapiens): 4520 nM
- CC50 [18, 24]: > 100000 nM
- Percent Growth ([18]; log10 conc −4.0 Molar): 23%
- Percent Growth ([18]; log10 conc −5.0 Molar): 36%
- Percent Growth ([18]; log10 conc −6.0 Molar): 77%
- Percent Growth ([18]; log10 conc −7.0 Molar): 103%
- Percent Growth ([18]; log10 conc −8.0 Molar): 100%
- TGI [19]: >1.00E−04 Molar
- GI50 ([19]; Homo sapiens): 3220 nM
- CC50 [19, 24]: > 100000 nM
- Percent Growth ([19]; log10 conc −4.0 Molar): 20%
- Percent Growth ([19]; log10 conc −5.0 Molar): 27%
- Percent Growth ([19]; log10 conc −6.0 Molar): 74%
- Percent Growth ([19]; log10 conc −7.0 Molar): 105%
- Percent Growth ([19]; log10 conc −8.0 Molar): 97%
- TGI [20]: >1.00E−04 Molar
- GI50 ([20]; Homo sapiens): 1170 nM
- CC50 [20, 24]: > 100000 nM
- Percent Growth ([20]; log10 conc −4.0 Molar): 7%
- Percent Growth ([20]; log10 conc −5.0 Molar): 23%
- Percent Growth ([20]; log10 conc −6.0 Molar): 52%
- Percent Growth ([20]; log10 conc −7.0 Molar): 94%
- Percent Growth ([20]; log10 conc −8.0 Molar): 99%
- GI50 ([21]; Homo sapiens, OVCAR-3, 48 h): 5250 nM
- CC50 ([21]; Homo sapiens, OVCAR-3, 48 h, read-out: LC50): > 100000 nM
- TGI ([21]; OVCAR-3, 48 h): >1.00E−04 Molar
- Percent Growth ([21]; OVCAR-3, log10 conc −4.0 Molar, 48 h): 31%
- Percent Growth ([21]; OVCAR-3, log10 conc −5.0 Molar, 48 h): 44%
- Percent Growth ([21]; OVCAR-3, log10 conc −6.0 Molar, 48 h): 64%
- Percent Growth ([21]; OVCAR-3, log10 conc −7.0 Molar, 48 h): 95%
- Percent Growth ([21]; OVCAR-3, log10 conc −8.0 Molar, 48 h): 89%
